Data taken from US11629171B2, “Beta-hairpin peptidomimetics” (POLYPHOR AG, priority 2017, dated 2023).
In brackets after ≈: the same amount, converted by molar mass. Where a SMILES comes first, the peptide text is derived from it. Bridges are numbered along the chain shown (N, C = ends). Roman numbers before positions name the chains, in order. [ ]: non-standard residue; d: D form. Thr(ol) = C[C@@H](O)[C@H](N)CO; pGlu = O=C1CC[C@@H](C(=O)O)N1; Tle = CC(C)(C)[C@H](N)C(=O)O; Hiv = CC(C)[C@H](O)C(=O)O; dDab = NCC[C@@H](N)C(=O)O; hSer = N[C@@H](CCO)C(=O)O; Nle = CCCC[C@H](N)C(=O)O; Orn = NCCC[C@H](N)C(=O)O; Dab = NCC[C@H](N)C(=O)O; Dap = NC[C@H](N)C(=O)O

Experiments:
Format in all cases: cell-based
[1] = test system: human red blood cells (hRBC); test: Hemolysis; conditions: red cells of human, 1 h, 200
Outline: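 Washed fresh human RBC (20% v/v) incubated with peptide at 200 μg/mL for 1 h at 37° C with shaking. Supernatant OD540 measured after dilution, blank corrected; percent hemolysis = OD540 peptide / OD540 of 2% Triton X-100 lysis × 100, PBS with 10% water as 0%.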

Escherichia coli 926415 = conditions: 926415
Outline: (§1)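 Broth microdilution per CLSI; MH-II (cation-adjusted) + 0.002% P-80 final; ~10^6 CFU/mL inoculum; 2-fold peptide series; 35° C, 18-20 h; MIC = no visible growth, μg/mL.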

[2] = test system: Acinetobacter baumannii 872842; conditions: 872842
Outline: as §1

[3] = test system: Escherichia coli ATCC 25922; conditions: ATCC 25922
Outline: as §1

[4] = test system: Klebsiella pneumoniae SSI #3010; conditions: SSI #3010
Outline: as §1

[5] = test system: Klebsiella pneumoniae 968733; conditions: 968733
Outline: as §1

[6] = test system: Pseudomonas aeruginosa ATCC 27853; conditions: ATCC 27853
Outline: as §1

[7] = test system: Acinetobacter baumannii DSM 30008; conditions: DSM 30008
Outline: as §1

[8] = test system: Enterobacter cloacae 848840; conditions: 848840
Outline: as §1

SMILES | MIC (Escherichia coli 926415) | MIC [2] | MIC [3] | MIC [4] | MIC [5] | MIC [6] | MIC [7] | MIC [8] | Escherichia coli ATCC 25922 MIC [3] | Klebsiella pneumoniae SSI #3010 MIC [4] | Pseudomonas aeruginosa ATCC 27853 MIC [6] | Acinetobacter baumannii DSM 30008 MIC [7] | Hemolysis at 200 μg/mL [1]
CC(C)C[C@@H]1NC(=O)[C@@H](CC(C)C)NC(=O)[C@H](CCN)NC(=O)[C@@H](NC(=O)[C@H](CCN)NC(=O)[C@@H](NC(=O)[C@H](CCN)NC(=O)CC[C@@H]2NC(=O)[C@H](CCN)NC(=O)[C@H](Cc3ccc(O)cc3)NC(=O)[C@@H](NC(=O)[C@@H](O)C(C)C)CSSC[C@@H](C(=O)N[C@H](CO)[C@@H](C)O)NC(=O)[C@H](C(C)(C)C)NC(=O)[C@H](CCO)NC(=O)[C@H](Cc3c[nH]c4ccccc34)NC(=O)[C@H]([C@@H](C)O)NC(=O)[C@@H](CCN)NC2=O)[C@@H](C)O)CCNC(=O)[C@H]([C@@H](C)O)NC(=O)[C@H](CCN)NC(=O)[C@H](CCN)NC1=O [Ex. 82] (I: H-[Hiv]CY[Dab]E[dDab]TW[hSer][Tle]C[Thr(ol)] / II: [Dab]T[Dab][Dab][Dab][dL]L[Dab][Dab]T; disulfide I:2-I:11; amide I:5-II:N; lactam II:4-II:C) | 0.5 mg/L (≈ 0.207 µM) | 0.25 mg/L (≈ 0.104 µM) | 0.0625 mg/L (≈ 0.0259 µM) | 0.0625 mg/L (≈ 0.0259 µM) | 0.25 mg/L (≈ 0.104 µM) | 0.25 mg/L (≈ 0.104 µM) | 0.125 mg/L (≈ 0.0518 µM) | 0.25 mg/L (≈ 0.104 µM) |  |  |  |  | <1%
CC(=O)N[C@H](C(=O)N[C@H]1CCCNC(=O)[C@@H]([C@H](C)O)NC(=O)[C@H](C(C)(C)C)NC(=O)[C@H](CO)NC(=O)[C@H](Cc2c[nH]c3ccccc23)NC(=O)[C@H](CO)NC(=O)[C@@H](CCN)NC(=O)[C@H](CCC(=O)N[C@@H](CCN)C(=O)N[C@H](C(=O)N[C@@H](CN)C(=O)N[C@H]2CCNC(=O)[C@H]([C@@H](C)O)NC(=O)[C@H](CCN)NC(=O)[C@H](CCN)NC(=O)[C@H](CC(C)C)NC(=O)[C@@H](CC(C)C)NC(=O)[C@H](CCN)NC2=O)[C@@H](C)O)NC(=O)[C@H](CO)NC(=O)[C@H](Cc2ccc(O)cc2)NC1=O)C(C)C [Ex. 23] (I: Ac-V[Orn]YSE[dDab]SWS[Tle][dT] / II: [Dab]T[Dap][Dab][Dab][dL]L[Dab][Dab]T; lactam I:2-I:C, II:4-II:C; amide I:5-II:N) | 0.5 mg/L (≈ 0.217 µM) | 0.25 mg/L (≈ 0.108 µM) | 0.0625 mg/L (≈ 0.0271 µM) | 0.125 mg/L (≈ 0.0542 µM) | 0.5 mg/L (≈ 0.217 µM) | 0.25 mg/L (≈ 0.108 µM) | 0.0625 mg/L (≈ 0.0271 µM) | 0.125 mg/L (≈ 0.0542 µM) |  |  |  |  | <1%
CC(C)C[C@@H]1NC(=O)[C@@H](CC(C)C)NC(=O)[C@H](CCN)NC(=O)[C@@H](NC(=O)[C@H](CN)NC(=O)[C@@H](NC(=O)[C@H](CCN)NC(=O)CC[C@@H]2NC(=O)[C@H](CN)NC(=O)[C@H](Cc3ccc(O)cc3)NC(=O)[C@@H](NC(=O)[C@@H](NC(=O)[C@@H]3CCC(=O)N3)C(C)C)CSSC[C@@H](C(=O)N[C@H](CO)[C@@H](C)O)NC(=O)[C@H](C(C)(C)C)NC(=O)[C@H](CO)NC(=O)[C@H](Cc3c[nH]c4ccccc34)NC(=O)[C@H]([C@@H](C)O)NC(=O)[C@@H](CCN)NC2=O)[C@@H](C)O)CCNC(=O)[C@H]([C@@H](C)O)NC(=O)[C@H](CCN)NC(=O)[C@H](CCN)NC1=O [Ex. 232] (I: [pGlu]VCY[Dap]E[dDab]TWS[Tle]C[Thr(ol)] / II: [Dab]T[Dap][Dab][Dab][dL]L[Dab][Dab]T; disulfide I:3-I:12; amide I:6-II:N; lactam II:4-II:C) | 0.0625 mg/L (≈ 0.0252 µM) | 0.0625 mg/L (≈ 0.0252 µM) | 0.0625 mg/L (≈ 0.0252 µM) | 0.125 mg/L (≈ 0.0503 µM) | 0.125 mg/L (≈ 0.0503 µM) | 0.125 mg/L (≈ 0.0503 µM) | 0.0625 mg/L (≈ 0.0252 µM) | 0.125 mg/L (≈ 0.0503 µM) |  |  |  |  | <1%
CC(C)C[C@@H]1NC(=O)[C@@H](CC(C)C)NC(=O)[C@H](CCN)NC(=O)[C@@H](NC(=O)[C@H](CCN)NC(=O)[C@@H](NC(=O)[C@H](CCN)NC(=O)CC[C@@H]2NC(=O)[C@H](CO)NC(=O)[C@H](Cc3ccc(O)cc3)NC(=O)[C@@H](NC(=O)[C@@H](O)C(C)C)CSSC[C@@H](C(=O)N[C@H](CO)[C@@H](C)O)NC(=O)[C@H](C(C)(C)C)NC(=O)[C@H](CO)NC(=O)[C@H](Cc3c[nH]c4ccccc34)NC(=O)[C@H](CCO)NC(=O)[C@@H](CCN)NC2=O)[C@@H](C)O)CCNC(=O)[C@H]([C@@H](C)O)NC(=O)[C@H](CCN)NC(=O)[C@H](CCN)NC1=O [Ex. 88] (I: H-[Hiv]CYSE[dDab][hSer]WS[Tle]C[Thr(ol)] / II: [Dab]T[Dab][Dab][Dab][dL]L[Dab][Dab]T; disulfide I:2-I:11; amide I:5-II:N; lactam II:4-II:C) | 0.125 mg/L (≈ 0.0523 µM) | 0.125 mg/L (≈ 0.0523 µM) | 0.0625 mg/L (≈ 0.0262 µM) | 0.125 mg/L (≈ 0.0523 µM) | 0.125 mg/L (≈ 0.0523 µM) | 0.125 mg/L (≈ 0.0523 µM) | 0.03125 mg/L (≈ 0.0131 µM) | 0.125 mg/L (≈ 0.0523 µM) |  |  |  |  | <1%

Second part, led by results:

MIC (Escherichia coli 926415) | MIC [2] | MIC [3] | MIC [4] | MIC [5] | MIC [6] | MIC [7] | MIC [8] | Escherichia coli ATCC 25922 MIC [3] | Klebsiella pneumoniae SSI #3010 MIC [4] | Pseudomonas aeruginosa ATCC 27853 MIC [6] | Acinetobacter baumannii DSM 30008 MIC [7] | SMILES | Hemolysis at 200 μg/mL [1]
4 mg/L (≈ 1.71 µM) | 8 mg/L (≈ 3.42 µM) | 0.125 mg/L (≈ 0.0534 µM) | 0.125 mg/L (≈ 0.0534 µM) | 4 mg/L (≈ 1.71 µM) | 0.25 mg/L (≈ 0.107 µM) | 0.125 mg/L (≈ 0.0534 µM) | 2 mg/L (≈ 0.854 µM) |  |  |  |  | CC(=O)N[C@H](C(=O)N[C@H](C(=O)N[C@@H](Cc1ccc(O)cc1)C(=O)N[C@H]1CSSC[C@@H](C(=O)N[C@H](C(=O)N[C@@H](CO)C(N)=O)C(C)C)NC(=O)[C@H](Cc2c[nH]c3ccccc23)NC(=O)[C@H](CCO)NC(=O)[C@@H](CCN)NC(=O)[C@H](CCC(=O)N[C@@H](CCN)C(=O)N[C@H](C(=O)N[C@@H](CCN)C(=O)N[C@H]2CCNC(=O)[C@H]([C@@H](C)O)NC(=O)[C@H](CCN)NC(=O)[C@H](CCN)NC(=O)[C@H](CC(C)C)NC(=O)[C@@H](CC(C)C)NC(=O)[C@H](CCN)NC2=O)[C@@H](C)O)NC1=O)[C@@H](C)O)C(C)C [Example 11] (I: Ac-VTYCE[dDab][hSer]WCVS-NH2 / II: [Dab]T[Dab][Dab][Dab][dL]L[Dab][Dab]T; disulfide I:4-I:9; amide I:5-II:N; lactam II:4-II:C) | 1%
1 mg/L (≈ 0.416 µM) | 0.5 mg/L (≈ 0.208 µM) |  |  | 4 mg/L (≈ 1.66 µM) |  |  | 1 mg/L (≈ 0.416 µM) | 0.0625 mg/L | 0.25 mg/L | 0.125 mg/L | 0.125 mg/L | CC(=O)N[C@H](C(=O)N[C@H]1CCCNC(=O)C[C@@H](C(=O)N[C@@H](CO)C(N)=O)NC(=O)[C@H](C(C)C)NC(=O)[C@H](CO)NC(=O)[C@H](Cc2c[nH]c3ccccc23)NC(=O)[C@H](CO)NC(=O)[C@@H](CCN)NC(=O)[C@H](CCC(=O)N[C@@H](CCN)C(=O)N[C@H](C(=O)N[C@@H](CN)C(=O)N[C@H]2CCNC(=O)[C@H]([C@@H](C)O)NC(=O)[C@H](CCN)NC(=O)[C@H](CCN)NC(=O)[C@H](CC(C)C)NC(=O)[C@@H](CC(C)C)NC(=O)[C@H](CCN)NC2=O)[C@@H](C)O)NC(=O)[C@H](CCN)NC(=O)[C@H](Cc2ccc(O)cc2)NC1=O)C(C)C [Ex. 319] (I: Ac-V[Orn]Y[Dab]E[dDab]SWSVDS-NH2 / II: [Dab]T[Dap][Dab][Dab][dL]L[Dab][Dab]T; lactam I:2-I:11, II:4-II:C; amide I:5-II:N) | <1%
0.0625 mg/L (≈ 0.0259 µM) | 0.03125 mg/L (≈ 0.013 µM) |  |  | 0.0625 mg/L (≈ 0.0259 µM) |  |  | 0.0625 mg/L (≈ 0.0259 µM) | 0.01562 mg/L | 0.0625 mg/L | 0.0625 mg/L | 0.01562 mg/L | CCCC[C@@H]1NC(=O)[C@H](CO)NC(=O)[C@H](Cc2c[nH]c3ccccc23)NC(=O)[C@H](CO)NC(=O)[C@@H](CCN)NC(=O)[C@H](CCC(=O)N[C@@H](CCN)C(=O)N[C@H](C(=O)N[C@@H](CN)C(=O)N[C@H]2CCNC(=O)[C@H]([C@@H](C)O)NC(=O)[C@H](CCN)NC(=O)[C@H](CCN)NC(=O)[C@H](CC(C)C)NC(=O)[C@@H](CC(C)C)NC(=O)[C@H](CCN)NC2=O)[C@@H](C)O)NC(=O)[C@H](CCN)NC(=O)[C@H](Cc2ccc(O)cc2)NC(=O)[C@@H](NC(=O)[C@@H](NC(C)=O)C(C)C)CSSC[C@@H](C(=O)N[C@@H](CO)C(N)=O)NC1=O [Ex. 316] (I: Ac-VCY[Dab]E[dDab]SWS[Nle]CS-NH2 / II: [Dab]T[Dap][Dab][Dab][dL]L[Dab][Dab]T; disulfide I:2-I:11; amide I:5-II:N; lactam II:4-II:C) | <1%
